We go through 5 molecules from patent US5100892A, “Dihydropyridine vasodilator agents” (Glaxo Inc., priority 1990, dated 1992).

Structures are written as SMILES.

The subject of this experiment is Spontaneously Hypertensive Rats. In words: Spontaneously Hypertensive Rat (SHR) Test, hemodynamics in anesthetized rats. The format is in vivo, Spontaneously Hypertensive Rat (Sprague Dawley). The conditions noted are these: for HR (Heart Rate: change from basal) / LVPT (time for Left Ventricular Pressure to decay from peak to 50%, % of basal) / MBP (Mean Blood Pressure: change from basal) / RT64 (change in time from maximal relaxation, % of basal) / dP/dT40 (change in rate of systolic pressure increase of left ventricle measured at 40 mm Hg from basal): anesthetized SHR. The method, then: Male Retired Breeder Spontaneously Hypertensive Rats (SHR) (Sprague Dawley, 250-350 g) are anesthetized by i.p. injection of Sodium Thiopental 50 mg/kg. A catheter is inserted into the duodenum for maintenance of anesthesia throughout the experiment. A tube is inserted through a lateral incision in the trachea. The left carotid artery is exposed and a Millar SPR-249 (2-F) pressure probe is inserted and passed into the left ventricle of the heart. Left ventricular pressure (LVP), the first differential of the LVP (+dP/dT,-dP/dT), the left ventricular end diastolic pressure (LVEDP) and the differential of the increase in LVP measured at a constant pressure of 40 mm Hg (dP/dT40) are measured via this probe. In addition to these parameters, two indices of myocardial diastolic relaxation are measured namely the RT64 (time in msec from the peak derivative of maximal relaxation to 64% of that value) and the Left Ventricular Pressure Time Constant (LVPT), the half-time for decay of the LVP from peak pressure to 50% of that pressure. […] Results also are shown graphically on a Gould RS3800 Recorder. A saline filled cannula is passed into the femoral vein for infusion of drugs and one is placed into the femoral artery for measurement and recording or arterial blood pressure (Statham P23Db pressure transducer). From this signal the diastolic, systolic and mean blood pressure are derived as well as the heart rate. After surgery, the preparation is left to stabilize for 45 minutes after which compounds, dissolved in polyethylene glycol, are slowly infused with a Sage Instruments Infusion pump into the femoral vein. […] After completion of the last infusion, hemodynamic parameters are observed over 30 min and then a standard dose of 3.0 mg/kg milrinone is infused (over 5 min) to test preparation responsiveness. In the SHR, the following results were obtained for several known cardiovascular agents and for the compound of Examples 10,11,15 and 16.

For the molecule `COC(=O)C1=C(C)NC(C)=C(C(=O)OCCNC(=O)COc2ccc(-c3cc(C#N)c(=O)[nH]c3C)cc2)C1c1cccc([N+](=O)[O-])c1` (single isomer, unassigned; (+)) [Example 15, (+)-2,6-dimethyl-3-carbomethoxy-4-(3-nitrophenyl)-5-{4-[1,2-dihydro-2-oxo-3-cyano-b 6-methyl-5(1H)-pyridyl]phenoxymethylenecarboxamidoethyloxycarbonyl}-1,4-dihydropyridine], for the setting “10 mg/kg i.v., SHR”, the “effect on blood pressure (in words)” value was “hypotension”, the “effect on dP/dT40 (in words)” value was “slight increase in dP/dT40”, the “effect on heart rate (in words)” value is “no change in heart rate” and the “effect on myocardial relaxation time constants (in words)” value is recorded as “little effect”. Besides, where the note is “10 mg/kg i.v.”, the “HR (Heart Rate: change from basal)” value is reported as -1.9%; the “LVPT (time for Left Ventricular Pressure to decay from peak to 50%, % of basal)” value is -4.2%; the “MBP (Mean Blood Pressure: change from basal)” value is -39.8%; the “RT64 (change in time from maximal relaxation, % of basal)” value was 1.6%. Moreover, the “dP/dT40 (change in rate of systolic pressure increase of left ventricle measured at 40 mm Hg from basal)” value (10 mg/kg i.v.) was 11.9%.
Regarding `NNc1nncc2ccccc12` [Hydralazine], for the setting “0.3 mg/kg i.v.”, the “HR (Heart Rate: change from basal)” value is given as 0%; the “LVPT (time for Left Ventricular Pressure to decay from peak to 50%, % of basal)” value was found to be 4.1%; the “MBP (Mean Blood Pressure: change from basal)” value is -1.2%; the “RT64 (change in time from maximal relaxation, % of basal)” value is 2%. Moreover, the “dP/dT40 (change in rate of systolic pressure increase of left ventricle measured at 40 mm Hg from basal)” value (0.3 mg/kg i.v.) is listed as 0%. Moreover, where the note is “1.0 mg/kg i.v.”, the “HR (Heart Rate: change from basal)” value is 8%; the “LVPT (time for Left Ventricular Pressure to decay from peak to 50%, % of basal)” value was 2.3%; the “MBP (Mean Blood Pressure: change from basal)” value is on record as -17.8%; the “RT64 (change in time from maximal relaxation, % of basal)” value was found to be 0%. Further, for the setting “1.0 mg/kg i.v.”, the “dP/dT40 (change in rate of systolic pressure increase of left ventricle measured at 40 mm Hg from basal)” value is 3.4%. In addition, under “3.0 mg/kg i.v.”, the “HR (Heart Rate: change from basal)” value is given as 8.8%; the “LVPT (time for Left Ventricular Pressure to decay from peak to 50%, % of basal)” value is -7.8%; the “MBP (Mean Blood Pressure: change from basal)” value is -37.5%; the “RT64 (change in time from maximal relaxation, % of basal)” value is on record as -12.5%. For the same molecule, for the setting “3.0 mg/kg i.v.”, the “dP/dT40 (change in rate of systolic pressure increase of left ventricle measured at 40 mm Hg from basal)” value is 0%. Under “10 mg/kg i.v.”, the “HR (Heart Rate: change from basal)” value is 17%; the “LVPT (time for Left Ventricular Pressure to decay from peak to 50%, % of basal)” value was -21.9%; the “MBP (Mean Blood Pressure: change from basal)” value is listed as -48%; the “RT64 (change in time from maximal relaxation, % of basal)” value is -22.6%. Moreover, under “10 mg/kg i.v.”, the “dP/dT40 (change in rate of systolic pressure increase of left ventricle measured at 40 mm Hg from basal)” value came out at 6.9%. In addition, where the note is “0.3 to 10 mg/kg i.v., SHR”, the “effect on blood pressure (in words)” value is “hypotension”; the “effect on dP/dT40 (in words)” value is given as “little change in dP/dT40”; the “effect on heart rate (in words)” value is listed as “reflex tachycardia”; the “effect on myocardial relaxation time constants (in words)” value was “reduction in myocardial relaxation time constants only at 3 and 10 mg/kg”.
For `COC(=O)C1=C(C)NC(C)=C(C(=O)OCCNC(=O)COc2ccc(-c3cc(C#N)c(=O)[nH]c3C)cc2)C1c1cccc([N+](=O)[O-])c1` (single isomer, unassigned; (-)) [Example 16, (-)-2,6-dimethyl-3-carbomethoxy-4-(3-nitrophenyl)-5-{4-[1,2-dihydro-2-oxo-3-cyano-6-methyl-5(1H)-pyridyl]phenoxymethylenecarboxamidoethyloxycarbonyl}-1,4-dihydropyridine], under “10 mg/kg i.v., SHR”, the “effect on blood pressure (in words)” value is listed as “hypotension”, the “effect on dP/dT40 (in words)” value is recorded as “slight increase in dP/dT40”, the “effect on heart rate (in words)” value is on record as “no change in heart rate” and the “effect on myocardial relaxation time constants (in words)” value was “marked reduction in myocardial relaxation time constants”. Further, for the setting “10 mg/kg i.v.”, the “HR (Heart Rate: change from basal)” value was -1.5%; the “LVPT (time for Left Ventricular Pressure to decay from peak to 50%, % of basal)” value is -18%; the “MBP (Mean Blood Pressure: change from basal)” value is recorded as -34.9%; the “RT64 (change in time from maximal relaxation, % of basal)” value is reported as -17.6%. In addition, the “dP/dT40 (change in rate of systolic pressure increase of left ventricle measured at 40 mm Hg from basal)” value (10 mg/kg i.v.) turned out to be 5%.
Turning to `COC(=O)C1=C(C)NC(C)=C(C(=O)OCCNC(=O)COc2ccc(-c3cc(C#N)c(=O)[nH]c3C)cc2)C1c1cccc(Cl)c1Cl` (racemic) [Example 11, (±)-2,6-dimethyl-3-carbomethoxy-4-(2,3-dichlorophenvl)-5-{4-[1,2-dihydro-2-oxo-3-cyano-6-methyl-5(1H)-pyridyl]phenoxymethylenecarboxamindoethyloxycarbonyl}-1,4-dihydropyridine], for the setting “0.3 mg/kg i.v.”, the “HR (Heart Rate: change from basal)” value is 2.8%; the “LVPT (time for Left Ventricular Pressure to decay from peak to 50%, % of basal)” value is -14.4%; the “MBP (Mean Blood Pressure: change from basal)” value was -12.5%; the “RT64 (change in time from maximal relaxation, % of basal)” value was -15.7%. Further, under “0.3 mg/kg i.v.”, the “dP/dT40 (change in rate of systolic pressure increase of left ventricle measured at 40 mm Hg from basal)” value stood at 4.5%. Further, for the setting “1.0 mg/kg i.v.”, the “HR (Heart Rate: change from basal)” value is given as 1.7%; the “LVPT (time for Left Ventricular Pressure to decay from peak to 50%, % of basal)” value is reported as -22.4%; the “MBP (Mean Blood Pressure: change from basal)” value was -16.3%; the “RT64 (change in time from maximal relaxation, % of basal)” value was -22.8%. Further, the “dP/dT40 (change in rate of systolic pressure increase of left ventricle measured at 40 mm Hg from basal)” value (1.0 mg/kg i.v.) is reported as 6.9%. For the same molecule, under “3.0 mg/kg i.v.”, the “HR (Heart Rate: change from basal)” value is -0.5%; the “LVPT (time for Left Ventricular Pressure to decay from peak to 50%, % of basal)” value is given as -34%; the “MBP (Mean Blood Pressure: change from basal)” value was -36.7%; the “RT64 (change in time from maximal relaxation, % of basal)” value is recorded as -26%. The “dP/dT40 (change in rate of systolic pressure increase of left ventricle measured at 40 mm Hg from basal)” value (3.0 mg/kg i.v.) is given as 3.5%. Further, under “10 mg/kg i.v.”, the “HR (Heart Rate: change from basal)” value is given as 0%; the “LVPT (time for Left Ventricular Pressure to decay from peak to 50%, % of basal)” value is on record as -31%; the “MBP (Mean Blood Pressure: change from basal)” value is reported as -45.8%; the “RT64 (change in time from maximal relaxation, % of basal)” value is listed as -34.5%. Besides, for the setting “10 mg/kg i.v.”, the “dP/dT40 (change in rate of systolic pressure increase of left ventricle measured at 40 mm Hg from basal)” value was -9%. In addition, the “hemodynamic profile compared with Example 10 (in words)” value (i.v., SHR, compared with Example 10) was “A similar profile was observed”.
For the molecule `COC(=O)C1=C(C)NC(C)=C(C(=O)OC)C1c1ccccc1[N+](=O)[O-]` [Nifedipine], for the setting “0.1 mg/kg i.v.”, the “HR (Heart Rate: change from basal)” value turned out to be 3%; the “LVPT (time for Left Ventricular Pressure to decay from peak to 50%, % of basal)” value is on record as -8%; the “MBP (Mean Blood Pressure: change from basal)” value is reported as -12%; the “RT64 (change in time from maximal relaxation, % of basal)” value is given as -7%. In addition, for the setting “0.1 mg/kg i.v.”, the “dP/dT40 (change in rate of systolic pressure increase of left ventricle measured at 40 mm Hg from basal)” value was found to be 7.5%. Further, for the setting “0.3 mg/kg i.v.”, the “HR (Heart Rate: change from basal)” value came out at 1%; the “LVPT (time for Left Ventricular Pressure to decay from peak to 50%, % of basal)” value turned out to be 3%; the “MBP (Mean Blood Pressure: change from basal)” value is given as -30%; the “RT64 (change in time from maximal relaxation, % of basal)” value was -7%. The “dP/dT40 (change in rate of systolic pressure increase of left ventricle measured at 40 mm Hg from basal)” value (0.3 mg/kg i.v.) was found to be 2%. Besides, under “1.0 mg/kg i.v.”, the “HR (Heart Rate: change from basal)” value is reported as -5%; the “LVPT (time for Left Ventricular Pressure to decay from peak to 50%, % of basal)” value was -7%; the “MBP (Mean Blood Pressure: change from basal)” value is reported as -47.5%; the “RT64 (change in time from maximal relaxation, % of basal)” value is -21%. Also, the “dP/dT40 (change in rate of systolic pressure increase of left ventricle measured at 40 mm Hg from basal)” value (1.0 mg/kg i.v.) is -15.5%. Where the note is “3.0 mg/kg i.v.”, the “HR (Heart Rate: change from basal)” value is on record as -7.5%; the “LVPT (time for Left Ventricular Pressure to decay from peak to 50%, % of basal)” value is reported as -18.5%; the “MBP (Mean Blood Pressure: change from basal)” value is given as -47.5%; the “RT64 (change in time from maximal relaxation, % of basal)” value is -25%. Under “3.0 mg/kg i.v.”, the “dP/dT40 (change in rate of systolic pressure increase of left ventricle measured at 40 mm Hg from basal)” value is recorded as -28.8%. Under “0.1 to 3 mg/kg i.v., SHR”, the “effect on blood pressure (in words)” value is “hypotension”, the “effect on dP/dT40 (in words)” value is reported as “a depression of dP/dT40”, the “effect on heart rate (in words)” value is reported as “little change in heart rate” and the “effect on myocardial relaxation time constants (in words)” value was “significant reduction of myocardial relaxation time constants only at the highest dose tested (3 mg/kg)”.
